# In US20250042881A1, “CCR6 RECEPTOR MODULATORS” (Idorsia Pharmaceuticals Ltd, priority 2021, published 2025):
# Biological target: T1, human CCR6 (Homo sapiens, UniProt P51684)
# T1 construct: expressed in transfected cells; host or cells: HEK-293
# T1 sequence (P51684 1-374): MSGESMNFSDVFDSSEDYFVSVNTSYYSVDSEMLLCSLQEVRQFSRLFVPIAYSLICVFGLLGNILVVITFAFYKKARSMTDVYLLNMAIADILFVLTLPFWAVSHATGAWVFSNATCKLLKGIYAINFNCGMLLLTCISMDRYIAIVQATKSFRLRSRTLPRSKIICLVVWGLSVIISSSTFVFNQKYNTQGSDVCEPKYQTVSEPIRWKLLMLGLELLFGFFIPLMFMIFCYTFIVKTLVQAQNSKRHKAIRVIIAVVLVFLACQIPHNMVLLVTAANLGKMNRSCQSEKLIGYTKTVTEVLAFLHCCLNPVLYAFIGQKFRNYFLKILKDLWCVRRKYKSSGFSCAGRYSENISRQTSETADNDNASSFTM
# Experiment: FLIPR assay: inhibition of CCL20-induced calcium signal in HEK-293 cells expressing human CCR6
# Format: cell-based
# Conditions: engineered HEK-293 cells expressing human CCR6; agonist CCL20 10 nM; 30 min preincubation; Fluo-8-AM; mean values if determined several times
# Experimental: FLIPR assay: The bioactivity of compounds is tested in a fluorometric imaging plate reader (FLIPR: Molecular Devices) using engineered HEK-293 cells expressing the human CCR6 (GenBank: AY242126). Frozen cells are plated on Poly-L-Lysine precoated 384-well plates 2 days prior to bioassay in DMEM medium supplemented with 10% FCS and 1% Penicillin-Streptomycin. At the day of bioassay, cell supernatant is discarded and cells are dye loaded for 30 minutes at room temperature in the dark with Fluo-8-AM (Focus Biomolecules) in Hanks Balanced Salt Solution (Gibco), buffered with 20 mM Hepes at pH 6.75 and supplemented with 0.05% BSA. This buffer, but lacking the dye, is also used for washing and compound dilution steps (assay buffer). Cells are washed free of excess dye with a wash-station (Biotek), leaving 40 microliter of assay buffer at the end. Cells were incubated for 15 minutes at room temperature in the dark, before adding compounds. Stock solutions of test compounds are made up at a concentration of 10 mM in DMSO, and serially diluted first in DMSO and then transferred in assay buffer to concentrations required for inhibition dose response curves. After a 45 minute incubation period in assay buffer at room temperature, 10 microliters of each compound dilution are transferred from a compound plate to the plate containing the recombinant cells in the FLIPR instrument according to the manufacturer's instructions. After cells and compounds were preincubated for 30 minutes at room temperature in the dark, 10 microliter agonist CCL20 (Peprotech) at a final concentration of 10 nM is added, again using the FLIPR instrument. Changes in fluorescence are monitored before and after addition of the test compounds and agonist. Emission peak values above base level after CCL20 addition are exported after base line subtraction. The calculated IC50 values may fluctuate depending on the daily assay performance. Fluctuations of this kind are known to those skilled in the art. In the case where IC50 values have been determined several times for the same compound, mean values are given.
row,IC50,Compound
1,55.8 nM,"CC(C)c1ccc([C@](O)(c2cncc(-c3nc(C4CCOCC4)n(C4CC4)n3)c2)C2(C)CN(C3CC3)C2)cc1 [Example 49, (R)-(1-Cyclopropyl-3-methyl-azetidin-3-yl)-{5-[1-cyclopropyl-5-(tetrahydro-pyran-4-yl)-1H-[1,2,4]triazol-3-yl]-pyridin-3-yl}-(4-isopropyl-phenyl)-methanol]"
2,578 nM,"CC(C)c1ccc([C@](O)(c2cnnc(-c3nc(C4CCOCC4)n(C(C)C)n3)c2)C2(C)CN(C)C2)cc1 [Example 51, (R)-(1,3-Dimethyl-azetidin-3-yl)-(4-isopropyl-phenyl)-{6-[1-isopropyl-5-(tetrahydro-pyran-4-yl)-1H-[1,2,4]triazol-3-yl]-pyridazin-4-yl}-methanol]"
3,481 nM,"CC(=O)NCCn1nc(-c2cncc([C@@](O)(c3ccc(C(C)C)cc3)C3(C)CN(C)C3)c2)nc1C1CCOCC1 [Example 50, N-{2-[3-{5-[(R)-(1,3-Dimethyl-azetidin-3-yl)-hydroxy-(4-isopropyl-phenyl)-methyl]-pyridin-3-yl}-5-(tetrahydro-pyran-4-yl)-[1,2,4]triazol-1-yl]-ethyl}-acetamide]"

# The remaining lines, values behind:
row,Compound,IC50
1,"CCc1ccc([C@](O)(c2cncc(-c3nc(C4CCOCC4)n(C4CC4)n3)c2)C2(C)CN(C)C2)cc1 [Example 6, (R)-{5-[1-Cyclopropyl-5-(tetrahydro-pyran-4-yl)-1H-[1,2,4]triazol-3-yl]-pyridin-3-yl}-(1,3-dimethyl-azetidin-3-yl)-(4-ethyl-phenyl)-methanol]",124 nM
2,"CCCc1nc(-c2cncc([C@@](O)(c3ccc(C(C)C)cc3)C3(C)CN(C)C3)c2)nn1C(C)C [Example 41, (R)-(1,3-Dimethyl-azetidin-3-yl)-(4-isopropyl-phenyl)-[5-(1-isopropyl-5-propyl-1H-[1,2,4]triazol-3-yl)-pyridin-3-yl]-methanol]",45.3 nM
3,"CC(=O)N1CCC(O)(c2nc(-c3cncc([C@@](O)(c4ccc(C(C)C)cc4)C4(C)CN(C)C4)c3)nn2C(C)C)CC1 [Example 47, 1-[4-(5-{5-[(R)-(1,3-Dimethyl-azetidin-3-yl)-hydroxy-(4-isopropyl-phenyl)-methyl]-pyridin-3-yl}-2-isopropyl-2H-[1,2,4]triazol-3-yl)-4-hydroxy-piperidin-1-yl]-ethanone]",206 nM
4,"CC(C)c1ccc([C@](O)(c2cncc(-c3nc(C4CCOCC4)n(C4CCC4)n3)c2)C2(C)CN(C)C2)cc1 [Example 23, (R)-{5-[1-Cyclobutyl-5-(tetrahydro-pyran-4-yl)-1H-[1,2,4]triazol-3-yl]-pyridin-3-yl}-(1,3-dimethyl-azetidin-3-yl)-(4-isopropyl-phenyl)-methanol]",57.8 nM
5,"CCCc1ccc([C@](O)(c2cncc(-c3nc(C4CCOCC4)n(C4CC4)n3)c2)C2(C)CN(C)C2)cc1 [Example 7, (R)-{5-[1-Cyclopropyl-5-(tetrahydro-pyran-4-yl)-1H-[1,2,4]triazol-3-yl]-pyridin-3-yl}-(1,3-dimethyl-azetidin-3-yl)-(4-propyl-phenyl)-methanol]",44.4 nM
6,"CC(C)c1ccc([C@](O)(c2cncc(-c3nc(-c4cccnc4)n(C4CC4)n3)c2)C2(C)CN(C)C2)cc1 [Example 24, (R)-[5-(1-Cyclopropyl-5-pyridin-3-yl-1H-[1,2,4]triazol-3-yl)-pyridin-3-yl]-(1,3-dimethyl-azetidin-3-yl)-(4-isopropyl-phenyl)-methanol]",50.1 nM
